Source: article PMC6270026, “Antibacterial and Herbicidal Activity of Ring-Substituted 2-Hydroxynaphthalene-1-carboxanilides” (Molecules, 2013)
≈ marks a conversion by molar mass, not a printed value. Where two headings read alike, the source gives them in different places.

Experiments:
Experiment in all cases: In vitro antibacterial susceptibility testing (broth dilution MIC)
Type in all cases: cell-based
[1] = system: Staphylococcus aureus ATCC 29213; conditions: ATCC29213; Staphylococcus aureus ATCC 29213, 24 h, 37 °C
Protocol: (§1) The synthesized compounds were evaluated for in vitro antibacterial activity against representatives of multidrug-resistant bacteria, clinical isolates of methicillin-resistant Staphylococcus aureus (MRSA) 63718, SA 630 and SA 3202 that were obtained from the National Institute of Public Health, Prague, Czech Republic. Staphylococcus aureus ATCC 29213 was used as a reference and quality control strain. Ampicillin (Sigma-Aldrich) was used as the standard. Prior to testing, each strain was passaged onto nutrient agar (Oxoid, Hampshire, UK) with 5% of bovine blood, and bacterial inocula were prepared by suspending a small portion of bacterial colony in sterile phosphate buffered saline (pH 7.2–7.3). The cell density was adjusted to 0.5 McFarland units using a densitometer (Densi-La-Meter, LIAP, Riga, Latvia). The final inoculum was made by 1:20 dilution of the suspension with the Mueller-Hinton broth (MH broth). […] The final concentrations of the evaluated compounds ranging from 256 μg/mL to 0.008 μg/mL. The broth dilution micro-method modified according to NCCLS guidelines in MH broth was used to determine the minimum inhibitory concentration (MIC). Drug-free controls, sterility controls and controls consisted of MH broth and DMSO alone were included. The determination of results was performed visually after 24 h of static incubation in the darkness at 37 °C in an aerobic atmosphere. The MICs were defined as the lowest concentration of the compound at which no visible bacterial growth was observed.

[2] = system: methicillin-resistant Staphylococcus aureus SA 3202; conditions: MRSA, read-out: MIC MRSA 3202
Protocol: as §1

[3] = system: methicillin-resistant Staphylococcus aureus SA 630; conditions: MRSA, clinical isolate SA 630, 24 h, 37 °C
Protocol: as §1

[4] = system: methicillin-resistant Staphylococcus aureus (MRSA) 63718; conditions: clinical isolate MRSA 63718, 24 h, 37 °C
Protocol: as §1

[5] = clinical isolate SA 3202, 24 h, 37 °C

| Compound | MIC [1] [µM] | MIC ([2]; 24 h) [µM] | MIC [3] [µM] | MIC [4] [µM] | MIC [2, 5] [µM] |
| --- | --- | --- | --- | --- | --- |
| O=C(Nc1ccccc1Cl)c1c(O)ccc2ccccc12 [Compound 5a, N-(2-chlorophenyl)-2-hydroxynaphthalene-1-carboxamide] | 215 (≈ 64 µg/mL) | > 860 | > 860 | 860 (≈ 256 µg/mL) |  |
| O=C(Nc1ccccc1C(F)(F)F)c1c(O)ccc2ccccc12 [Compound 7a, 2-Hydroxy-N-(2-trifluoromethylphenyl)naphthalene-1-carboxamide] | 97.1 (≈ 32.2 µg/mL) |  | 97.1 (≈ 32.2 µg/mL) | 193 (≈ 63.9 µg/mL) | 193 (≈ 63.9 µg/mL) |
| O=C(Nc1cccc(C(F)(F)F)c1)c1c(O)ccc2ccccc12 [Compound 7b, 2-Hydroxy-N-(3-trifluoromethylphenyl)naphthalene-1-carboxamide] | > 748 |  | 374 (≈ 124 µg/mL) | 187 (≈ 62 µg/mL) | 94 (≈ 31.1 µg/mL) |
